The assay concerns the target Human immunodeficiency virus type 1 protease (Human immunodeficiency virus 1, UniProt Q72874). The assay can be described thus: Compound was assayed for inhibition against HIV protease activity.

For the compound `COc1ccc(S(=O)(=O)N(CC2CCCC2)C[C@@H](O)CN2C(=O)CNC[C@@H]2Cc2ccccc2)cc1`, the Ki (commonly the equilibrium dissociation constant of an inhibitor or competing ligand from its target) was 3000 nM. That is a single-digit micromolar value. The compound `COc1ccc(S(=O)(=O)N(CC2CCCC2)C[C@@H](O)CN2C(=O)C3(CCCCC3)NC[C@@H]2Cc2ccccc2)cc1` registered a Ki of 17 nM. This Ki is about 180-fold lower than that of the compound before.

As for `COc1ccc(S(=O)(=O)N(CC2CCCC2)C[C@@H](O)CN2C(=O)COC[C@@H]2Cc2ccccc2)cc1`, the affinity, expressed as Ki, was 1000 nM. Under `COc1ccc(S(=O)(=O)N(CC2CCCC2)C[C@@H](O)CN2C(=O)[C@@H](Cc3ccccc3)C[C@@H]2Cc2ccccc2)cc1` stands 0.5 nM; under `COc1ccc(S(=O)(=O)N(CC2CCCC2)C[C@@H](O)CN2C(=O)N(Cc3ccccc3)C[C@@H]2Cc2ccccc2)cc1`, 15 nM. In the case of `COc1ccc(S(=O)(=O)N(CC2CCCC2)C[C@@H](O)CN2C(=O)OC[C@@H]2Cc2ccccc2)cc1` it was 1500 nM.

The values above are taken from ChEMBL document CHEMBL1130721, “Design and synthesis of novel conformationally restricted HIV protease inhibitors” (Bioorg Med Chem Lett, 1998).
